The target of the assay is T1, β–glucosidase.
T1 construct: gene emulsin; sweet almond is only the usual commercial preparation
Kind of assay: p-nitrophenol release, […] nm. The note with it: p-nitrophenyl β-D-glucopyranoside […], phosphate buffer pH […] °C. Type of assay: biochemical.

Structures are written as SMILES. ≈ marks a conversion by molar mass, not a printed value.

This note sets out measurements from PMC5834903, “Phytochemical profiling and in vitro screening for anticholinesterase, antioxidant, antiglucosidase and neuroprotective effect of three traditional medicinal plants for Alzheimer’s Disease and Diabetes Mellitus dual therapy” (BMC Complementary and Alternative Medicine, 2018).

For the compound `O=C1O[C@H](CO)[C@@H](O)[C@H](O)[C@H]1O` [D-Glucono-δ-lactone], the “IC50 Values (μg/mL) / β-Glc” value is 10.68 ± 0.005 µg/mL (≈ 60 µM).
